Experimental data reported in article PMC12720774, “Detergents alter the stability and lipid binding properties of the CD1d immunoreceptor” (Protein Science : A Publication of the Protein Society, 2025).
“And” between values parts separate entries of the source, which are not always exact repeats. Identical values can stand only once.

Legend:
[1] = molecular target: T1, CSP 319‐328/HLA‐B*08:01/hβ2M complex (Homo sapiens, UniProt P01889, A93T/A95T/D138N/E176V/E187T/K202T/Q94N/R180D/S35A/V36M/Y33D/Y91F); experiment: MST with peptide/HLA complex; format: binding; details: for MST normalized fluorescence signal (Fnorm): peptide/HLA with Tween 20, replicates
T1 construct: made in house
Description: (§1) To determine whether detergent effects were specific to hCD1d, we performed analogous ITF, MST, and nanoDSF experiments with a peptide/HLA complex. HLA‐B*08:01, presenting the Plasmodium falciparum derived peptide […] ([…]), was selected as a representative model system since the peptide antigen contains hydrophilic solvent‐exposed residues in the antigen‐binding groove (Frooman et al., [2025]). Although structurally similar to that of hCD1d, HLA‐B*08:01 shares low sequence identity (Figure S10a). […] By nanoDSF, ODG caused minimal destabilization of either complex (ΔT m≈−0.2 to −0.8°C; Figure S10f). […] We posit that lipid‐specific unloading effects of detergent are due to either hydrophobic residues in the antigen binding groove (detergent‐CD1d interactions) and/or the hydrophobic nature of the lipid antigen (detergent‐lipid interactions).
(§2) For comparison with peptide/HLA molecules, we prepared recombinant CSP 319‐328/HLA‐B*08:01/hβ2M complex using in vitro refolding methods fully described previously (Frooman et al., [2025]). The peptide sequence for CSP 319–328 is […]. This peptide was chosen since it contains Lys, Gln, and Asp residues predicted to be solvent‐exposed in the HLA‐B*08:01 binding groove (Frooman et al., [2025]).
MST experiments with peptide/HLA molecules and detergents were performed using an analogous protocol.

[2] = molecular target: T1, CSP 319‐328/HLA‐B*08:01/hβ2M complex; experiment: nanoDSF with peptide/HLA complex; format: binding; details: for nanoDSF melting temperature of peptide/HLA: peptide/HLA with Tween 20, replicates
Description: as §1, §2
NanoDSF experiments with peptide/HLA molecules and detergents were performed using an analogous protocol.

[3] = tested on: CD1c; parameters: method as in Mansour et al., 2016; details: ref Mansour et al., 2016; cited from earlier work
[4] = molecular target: hCD1d (Homo sapiens, UniProt P15813+P61769); experiment: Nano differential scanning fluorimetry (nanoDSF) thermal stability; format: binding; parameters: TEV protease cleavage site ENLYFQS (C); BirA biotinylation site (C); His7 (C); made in house; host or cells: TurboCHO cells (GenScript)
Sequence of hCD1d (P61769+P15813 fused): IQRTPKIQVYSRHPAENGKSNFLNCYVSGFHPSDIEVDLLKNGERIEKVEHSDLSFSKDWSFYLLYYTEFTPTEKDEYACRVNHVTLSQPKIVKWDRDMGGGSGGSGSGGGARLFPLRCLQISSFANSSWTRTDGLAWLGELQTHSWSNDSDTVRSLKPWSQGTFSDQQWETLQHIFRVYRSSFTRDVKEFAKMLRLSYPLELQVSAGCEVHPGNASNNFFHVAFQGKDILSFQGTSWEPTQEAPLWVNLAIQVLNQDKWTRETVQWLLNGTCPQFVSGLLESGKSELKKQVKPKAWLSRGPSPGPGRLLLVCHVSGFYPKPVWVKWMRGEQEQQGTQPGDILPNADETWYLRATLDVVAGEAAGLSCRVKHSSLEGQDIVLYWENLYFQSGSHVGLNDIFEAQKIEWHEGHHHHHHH
Description: We next sought to probe the ability of each detergent to influence the thermal stability of hCD1d. NanoDSF has been previously applied to measure lipid/detergent‐induced thermal stability changes in target proteins (Cecchetti et al., [2021]; Kotov et al., [2019]), but has not yet been applied to ligand binding to CD1. NanoDSF measures the ITF ratio (F 350 nm/F 330 nm) of proteins as a function of temperature to extract thermodynamic parameters. Given that ligand binding typically shifts the melting temperature of proteins, the effect of a ligand on protein stability can be approximated with the ΔT m value (the difference in T m with and without excess ligand) (Cecchetti et al., [2021]; Kotov et al., [2019]). We found all detergents tested to destabilize hCD1d, albeit to different degrees, with ΔT m values ranging from −0.8 to −14.2°C (Figures 4, S4, and Table 1).
Nano differential scanning fluorometry (nanoDSF) was performed using a Prometheus NT.48 (NanoTemper Technologies). Purified hCD1d at 1 μM in 1X PBS pH 7.4 was loaded into nanoDSF grade standard capillaries (NanoTemper Technologies) and exposed to temperatures ranging from 20 to 95°C with a thermal ramping rate of 1°C/min. Excitation power was set to 50%. The ratio of intrinsic fluorescence emission (F 350 nm/F 330 nm) was monitored. Melting temperatures (T m) were obtained from fitting the first derivative plots in the Prometheus NT.48 Software. The experiments were performed in triplicate, and data are presented as the mean ± standard deviation (n = 3).
For experiments with most detergents, prior to data acquisition, hCD1d and detergent or lipid samples were incubated at 37°C overnight (~12 h) to simulate in vitro and in vivo loading conditions. […] For 18:1 LPC experiments: nanoDSF spectra were acquired in the absence and presence of 18:1 LPC in 1X PBS pH 7.4 at 25°C.

Substance: Tween 20
- Kd ([1]; 100 nM AF647‐labeled peptide/HLA, 25°C, read-out: K D (MST), peptide/HLA): 10.1 ± 2.8 µM
- MST normalized fluorescence signal (Fnorm) ([1]; concentration 3.05176e-8 (unit not given)): 826.857 and 829.996 and 831.035
- MST normalized fluorescence signal (Fnorm) ([1]; concentration 6.10352e-8 (unit not given)): 827.636 and 831.405 and 830.579
- MST normalized fluorescence signal (Fnorm) ([1]; concentration 1.2207e-7 (unit not given)): 825.955 and 829.58 and 832.602
- MST normalized fluorescence signal (Fnorm) ([1]; concentration 2.44141e-7 (unit not given)): 826.8 and 829.861 and 831.726
- MST normalized fluorescence signal (Fnorm) ([1]; concentration 4.88281e-7 (unit not given)): 824.798 and 829.349 and 832.449
- MST normalized fluorescence signal (Fnorm) ([1]; concentration 9.76563e-7 (unit not given)): 827.728 and 832.261 and 832.695
- MST normalized fluorescence signal (Fnorm) ([1]; concentration 1.95313e-6 (unit not given)): 829.662 and 834.525 and 833.392
- MST normalized fluorescence signal (Fnorm) ([1]; concentration 3.90625e-6 (unit not given)): 826.877 and 835.214 and 835.492
- MST normalized fluorescence signal (Fnorm) ([1]; concentration 7.8125e-6 (unit not given)): 836.072 and 833.005 and 835.4
- MST normalized fluorescence signal (Fnorm) ([1]; concentration 1.5625e-5 (unit not given)): 830.346 and 831.213 and 835.161
- MST normalized fluorescence signal (Fnorm) ([1]; concentration 3.125e-5 (unit not given)): 838.975 and 840.638 and 846.826
- MST normalized fluorescence signal (Fnorm) ([1]; concentration 6.25e-5 (unit not given)): 839.005 and 846.034 and 849.234
- MST normalized fluorescence signal (Fnorm) ([1]; concentration 0.000125 (unit not given)): 840.518 and 838.062 and 842.957
- MST normalized fluorescence signal (Fnorm) ([1]; concentration 0.00025 (unit not given)): 834.255 and 840.226 and 843.206
- MST normalized fluorescence signal (Fnorm) ([1]; concentration 0.0005 (unit not given)): 839.953 and 837.123 and 843.815
- MST normalized fluorescence signal (Fnorm) ([1]; concentration 0.001 (unit not given)): 833.107 and 838.64 and 841.342
- ΔT m (nanoDSF), peptide/HLA ([2]; absence vs maximum concentration of detergent, 1 μM peptide/HLA): ≈ −0.3 °C
- nanoDSF melting temperature of peptide/HLA ([2]; concentration 0.030518 (unit not given)): 55.19 and 55.32 and 55.37
- nanoDSF melting temperature of peptide/HLA ([2]; concentration 0.061035 (unit not given)): 55.29 and 55.45 and 55.24
- nanoDSF melting temperature of peptide/HLA ([2]; concentration 0.12207 (unit not given)): 55.51 and 55.26 and 55.3
- nanoDSF melting temperature of peptide/HLA ([2]; concentration 0.244141 (unit not given)): 55.15 and 55.36 and 55.47
- nanoDSF melting temperature of peptide/HLA ([2]; concentration 0.488281 (unit not given)): 55.37 and 55.28 and 55.18
- nanoDSF melting temperature of peptide/HLA ([2]; concentration 0.976563 (unit not given)): 55.33 and 55.35 and 55.37
- nanoDSF melting temperature of peptide/HLA ([2]; concentration 1.95312 (unit not given)): 55.37 and 55.15
- nanoDSF melting temperature of peptide/HLA ([2]; concentration 3.90625 (unit not given)): 55.29 and 55.17 and 55.23
- nanoDSF melting temperature of peptide/HLA ([2]; concentration 7.8125 (unit not given)): 55.43 and 55.31 and 55.36
- nanoDSF melting temperature of peptide/HLA ([2]; concentration 15.625 (unit not given)): 55.24 and 55.22 and 55.41
- nanoDSF melting temperature of peptide/HLA ([2]; concentration 31.25 (unit not given)): 55.63 and 55.25 and 55.23
- nanoDSF melting temperature of peptide/HLA ([2]; concentration 62.5 (unit not given)): 55.32 and 55.31 and 55.25
- nanoDSF melting temperature of peptide/HLA ([2]; concentration 125 (unit not given)): 55.13 and 55.18 and 55.19
- nanoDSF melting temperature of peptide/HLA ([2]; concentration 250 (unit not given)): 55.22 and 55.06 and 55.24
- nanoDSF melting temperature of peptide/HLA ([2]; concentration 500 (unit not given)): 54.35 and 55.14 and 54.93
- nanoDSF melting temperature of peptide/HLA ([2]; concentration 1000 (unit not given)): 55.13 and 54.89 and 54.93
- stripping of lipid antigens from CD1c (in words) [3]: could efficiently strip lipid antigens away
- ΔTm aveage ([4]; Figure 5C, nanoDSF, hCD1d with detergent): -8.33 °C
- ΔT m (NanoDSF) ([4]; T m difference between hCD1d in the absence and presence of 1000 μM detergent, 1 μM hCD1d): -8.3 ± 0.2 °C
- ΔT m (nanoDSF), lipid/hCD1d ([4]; absence vs maximum concentration of detergent, 1 μM endo/hCD1d (Figure S10)): ≈ −8.3 °C
- ΔT m, detergent class summary ([4]; approximate): −8 to −10 °C
